The numbers were not newly measured in US20020179884A1, “Disinfecting and deodorizing agent” (priority 2000, published 2002), which cites them from elsewhere.

Structures are written as SMILES.

For the series the following is noted: 25° C.
On to `O=C([O-])O.[Na+]` [sodium hydrogencarbonate], for which the pKa25 is listed as 10.33. Turning to `O=BOB(O)OB(O)OB=O` [sodium tetraborate], the pKa25 was 9.24. On to `O=P(O)(O)OP(=O)(O)OP(=O)(O)O` [sodium tripolyphosphate], for which the pKa25 is on record as 9.70.

For the molecule `O=P([O-])([O-])OP(=O)([O-])O.[Na+].[Na+].[Na+]` [trisodium pyrophosphate], the pKa25 is given as 8.95.
